Reference: patent US5843889A, “Glycopeptide antibiotic derivatives” (Eli Lilly and Company, priority 1997, dated 1998)
≈ marks a conversion by molar mass, not a printed value.

Tests used:
Experiment in all cases: MIC, standard broth micro-dilution assay
Type in all cases: cell-based
[1] = system: Entercoccus faecalis 2041
Experimental: (§1) The formula I compounds have in vitro and in vivo activity against Gram-positive pathogenic bacteria. The MIC's were determined using a standard broth micro-dilution assay.

[2] = system: Entercoccus gallinarum 245
Experimental: as §1

[3] = system: Entercoccus faecalis 276
Experimental: as §1

| SMILES | MIC [1] | MIC [2] | MIC [3] |
| --- | --- | --- | --- |
| CNC(CC(C)C)C(=O)NC1C(=O)NC(CC(N)=O)C(=O)NC2C(=O)NC3C(=O)NC(C(=O)NC(C(=O)O)c4cc(O)cc(O)c4-c4cc3ccc4O)C(OC3CC(C)(N)C(O)C(C)O3)c3ccc(c(Cl)c3)Oc3cc2cc(c3OC2OC(CO)C(O)C(O)C2OC2CC(C)(NCCCCC3CCCCC3)C(O)C(C)O2)Oc2ccc(cc2Cl)C1O (stereo not drawn) [Compound 205, 4-cyclohexylbutyl] | 0.25 µg/mL (≈ 0.144 µM) | 1 µg/mL (≈ 0.578 µM) | 0.5 µg/mL (≈ 0.289 µM) |
| CNC(CC(C)C)C(=O)NC1C(=O)NC(CC(N)=O)C(=O)NC2C(=O)NC3C(=O)NC(C(=O)NC(C(=O)O)c4cc(O)cc(O)c4-c4cc3ccc4O)C(OC3CC(C)(N)C(O)C(C)O3)c3ccc(c(Cl)c3)Oc3cc2cc(c3OC2OC(CO)C(O)C(O)C2OC2CC(C)(NCc3ccc(-c4ccccc4)cc3F)C(O)C(C)O2)Oc2ccc(cc2Cl)C1O (stereo not drawn) [Compound 206, 4-phenyl-2-fluorobenzyl] | 0.25 µg/mL (≈ 0.141 µM) | 1 µg/mL (≈ 0.563 µM) | ≤ 0.06 µg/mL |
| CNC(CC(C)C)C(=O)NC1C(=O)NC(CC(N)=O)C(=O)NC2C(=O)NC3C(=O)NC(C(=O)NC(C(=O)O)c4cc(O)cc(O)c4-c4cc3ccc4O)C(OC3CC(C)(N)C(O)C(C)O3)c3ccc(c(Cl)c3)Oc3cc2cc(c3OC2OC(CO)C(O)C(O)C2OC2CC(C)(NCc3ccc(N=Nc4ccccc4)cc3)C(O)C(C)O2)Oc2ccc(cc2Cl)C1O (stereo not drawn) [Compound 210, 4-[phenylazo]benzyl] | ≤ 0.06 µg/mL | 1 µg/mL (≈ 0.56 µM) | ≤ 0.06 µg/mL |
| CNC(CC(C)C)C(=O)NC1C(=O)NC(CC(N)=O)C(=O)NC2C(=O)NC3C(=O)NC(C(=O)NC(C(=O)O)c4cc(O)cc(O)c4-c4cc3ccc4O)C(OC3CC(C)(N)C(O)C(C)O3)c3ccc(c(Cl)c3)Oc3cc2cc(c3OC2OC(CO)C(O)C(O)C2OC2CC(C)(NCc3ccc(-c4ccc(F)cc4)cc3)C(O)C(C)O2)Oc2ccc(cc2Cl)C1O (stereo not drawn) [Compound 211, 4-[4-flurophenyl]benzyl] | ≤ 0.06 µg/mL | ≤ 0.06 µg/mL | ≤ 0.06 µg/mL |
| CNC(CC(C)C)C(=O)NC1C(=O)NC(CC(N)=O)C(=O)NC2C(=O)NC3C(=O)NC(C(=O)NC(C(=O)O)c4cc(O)cc(O)c4-c4cc3ccc4O)C(OC3CC(C)(N)C(O)C(C)O3)c3ccc(c(Cl)c3)Oc3cc2cc(c3OC2OC(CO)C(O)C(O)C2OC2CC(C)(NCc3ccc(-c4ccc([N+](=O)[O-])cc4)c([N+](=O)[O-])c3)C(O)C(C)O2)Oc2ccc(cc2Cl)C1O (stereo not drawn) [Compound 212, 3-nitro-4-[4-nitrophenyl]benzyl] | ≤ 0.06 µg/mL | 1 µg/mL (≈ 0.541 µM) | ≤ 0.06 µg/mL |
| CNC(CC(C)C)C(=O)NC1C(=O)NC(CC(N)=O)C(=O)NC2C(=O)NC3C(=O)NC(C(=O)NC(C(=O)O)c4cc(O)cc(O)c4-c4cc3ccc4O)C(OC3CC(C)(N)C(O)C(C)O3)c3ccc(c(Cl)c3)Oc3cc2cc(c3OC2OC(CO)C(O)C(O)C2OC2CC(C)(NCc3ccc(-c4ccccc4[N+](=O)[O-])c([N+](=O)[O-])c3)C(O)C(C)O2)Oc2ccc(cc2Cl)C1O (stereo not drawn) [Compound 213, 3-nitro-4-[2-nitrophenyl]benzyl] | ≤ 0.06 µg/mL | 2 µg/mL (≈ 1.08 µM) | ≤ 0.06 µg/mL |
| C=CCCCCNC1(C)CC(OC2C(Oc3c4cc5cc3Oc3ccc(cc3Cl)C(OC3CC(C)(N)C(O)C(C)O3)C3NC(=O)C(NC(=O)C5NC(=O)C(CC(N)=O)NC(=O)C(NC(=O)C(CC(C)C)NC)C(O)c5ccc(c(Cl)c5)O4)c4ccc(O)c(c4)-c4c(O)cc(O)cc4C(C(=O)O)NC3=O)OC(CO)C(O)C2O)OC(C)C1O (stereo not drawn) [Compound 217, 5-hexenyl] | ≤ 0.06 µg/mL | 8 µg/mL (≈ 4.78 µM) | ≤ 0.06 µg/mL |
| CNC(CC(C)C)C(=O)NC1C(=O)NC(CC(N)=O)C(=O)NC2C(=O)NC3C(=O)NC(C(=O)NC(C(=O)O)c4cc(O)cc(O)c4-c4cc3ccc4O)C(OC3CC(C)(N)C(O)C(C)O3)c3ccc(c(Cl)c3)Oc3cc2cc(c3OC2OC(CO)C(O)C(O)C2OC2CC(C)(NCc3ccc(OCCCCCCc4ccccc4)cc3)C(O)C(C)O2)Oc2ccc(cc2Cl)C1O (stereo not drawn) [Compound 219, 4-[6-phenylhexyloxy]benzyl] | 2 µg/mL (≈ 1.08 µM) | 2 µg/mL (≈ 1.08 µM) | 2 µg/mL (≈ 1.08 µM) |
| CNC(CC(C)C)C(=O)NC1C(=O)NC(CC(N)=O)C(=O)NC2C(=O)NC3C(=O)NC(C(=O)NC(C(=O)O)c4cc(O)cc(O)c4-c4cc3ccc4O)C(OC3CC(C)(N)C(O)C(C)O3)c3ccc(c(Cl)c3)Oc3cc2cc(c3OC2OC(CO)C(O)C(O)C2OC2CC(C)(NCc3ccc(-c4ccc(C)cc4)cc3C)C(O)C(C)O2)Oc2ccc(cc2Cl)C1O (stereo not drawn) [Compound 222, 4-[4-methylphenyl]-2-methylbenzyl] | ≤ 0.06 µg/mL | 1 µg/mL (≈ 0.56 µM) | ≤ 0.06 µg/mL |
| CNC(CC(C)C)C(=O)NC1C(=O)NC(CC(N)=O)C(=O)NC2C(=O)NC3C(=O)NC(C(=O)NC(C(=O)O)c4cc(O)cc(O)c4-c4cc3ccc4O)C(OC3CC(C)(N)C(O)C(C)O3)c3ccc(c(Cl)c3)Oc3cc2cc(c3OC2OC(CO)C(O)C(O)C2OC2CC(C)(NCc3ccc(-c4cccc(C)c4)cc3)C(O)C(C)O2)Oc2ccc(cc2Cl)C1O (stereo not drawn) [Compound 224, 4-[3-methylphenyl]benzyl] | ≤ 0.06 µg/mL | 0.5 µg/mL (≈ 0.282 µM) | ≤ 0.06 µg/mL |
| CCCCCC#Cc1ccc(CNC2(C)CC(OC3C(Oc4c5cc6cc4Oc4ccc(cc4Cl)C(OC4CC(C)(N)C(O)C(C)O4)C4NC(=O)C(NC(=O)C6NC(=O)C(CC(N)=O)NC(=O)C(NC(=O)C(CC(C)C)NC)C(O)c6ccc(c(Cl)c6)O5)c5ccc(O)c(c5)-c5c(O)cc(O)cc5C(C(=O)O)NC4=O)OC(CO)C(O)C3O)OC(C)C2O)cc1 (stereo not drawn) [Compound 227, 4-[1-heptynyl]benzyl] | 0.25 µg/mL (≈ 0.141 µM) | 4 µg/mL (≈ 2.25 µM) | 0.5 µg/mL (≈ 0.281 µM) |
| CNC(CC(C)C)C(=O)NC1C(=O)NC(CC(N)=O)C(=O)NC2C(=O)NC3C(=O)NC(C(=O)NC(C(=O)O)c4cc(O)cc(O)c4-c4cc3ccc4O)C(OC3CC(C)(N)C(O)C(C)O3)c3ccc(c(Cl)c3)Oc3cc2cc(c3OC2OC(CO)C(O)C(O)C2OC2CC(C)(NCc3cccc(Sc4ccc(C(C)(C)C)cc4)c3)C(O)C(C)O2)Oc2ccc(cc2Cl)C1O (stereo not drawn) [Compound 228, 3-[4-t-butyl-phenylthio]benzyl] | 0.25 µg/mL (≈ 0.135 µM) | 4 µg/mL (≈ 2.17 µM) | 1 µg/mL (≈ 0.541 µM) |
| CNC(CC(C)C)C(=O)NC1C(=O)NC(CC(N)=O)C(=O)NC2C(=O)NC3C(=O)NC(C(=O)NC(C(=O)O)c4cc(O)cc(O)c4-c4cc3ccc4O)C(OC3CC(C)(N)C(O)C(C)O3)c3ccc(c(Cl)c3)Oc3cc2cc(c3OC2OC(CO)C(O)C(O)C2OC2CC(C)(NCc3ccc(-c4ccc(Cl)cc4)cc3)C(O)C(C)O2)Oc2ccc(cc2Cl)C1O (stereo not drawn) [Compound 229, 4-[4-chlorophenyl]benzyl-A82846B] | ≤ 0.06 µg/mL | 2 µg/mL (≈ 1.12 µM) | 0.25 µg/mL (≈ 0.139 µM) |
| CNC(CC(C)C)C(=O)NC1C(=O)NC(CC(N)=O)C(=O)NC2C(=O)NC3C(=O)NC(C(=O)NC(C(=O)O)c4cc(O)cc(O)c4-c4cc3ccc4O)C(OC3CC(C)(N)C(O)C(C)O3)c3ccc(c(Cl)c3)Oc3cc2cc(c3OC2OC(CO)C(O)C(O)C2OC2CC(C)(NCc3ccc(-c4ccc(Br)cc4)cc3)C(O)C(C)O2)Oc2ccc(cc2Cl)C1O (stereo not drawn) [Compound 230, 4-[4-bromophenyl]benzyl] | ≤ 0.06 µg/mL | 2 µg/mL (≈ 1.09 µM) | ≤ 0.06 µg/mL |
| CNC(CC(C)C)C(=O)NC1C(=O)NC(CC(N)=O)C(=O)NC2C(=O)NC3C(=O)NC(C(=O)NC(C(=O)O)c4cc(O)cc(O)c4-c4cc3ccc4O)C(OC3CC(C)(N)C(O)C(C)O3)c3ccc(c(Cl)c3)Oc3cc2cc(c3OC2OC(CO)C(O)C(O)C2OC2CC(C)(NCc3ccc(-c4ccc(C#N)cc4)cc3)C(O)C(C)O2)Oc2ccc(cc2Cl)C1O (stereo not drawn) [Compound 231, 4-[4-cyanophenyl]benzyl] | ≤ 0.06 µg/mL | 0.5 µg/mL (≈ 0.28 µM) | ≤ 0.06 µg/mL |
| CCCCCCCC#Cc1ccc(CN[C@@]2(C)C[C@H](O[C@H]3[C@H](Oc4c5cc6cc4Oc4ccc(cc4Cl)[C@@H](O[C@H]4C[C@](C)(N)[C@@H](O)[C@H](C)O4)[C@@H]4NC(=O)[C@H](NC(=O)[C@@H]6NC(=O)[C@H](CC(N)=O)NC(=O)[C@H](NC(=O)[C@@H](CC(C)C)NC)[C@H](O)c6ccc(c(Cl)c6)O5)c5ccc(O)c(c5)-c5c(O)cc(O)cc5[C@@H](C(=O)O)NC4=O)O[C@H](CO)[C@@H](O)[C@@H]3O)O[C@@H](C)[C@@H]2O)cc1 [Compound 232, 4-[1-nonynyl]benzyl] | 2 µg/mL (≈ 1.11 µM) | 32 µg/mL (≈ 17.7 µM) | 8 µg/mL (≈ 4.43 µM) |
| CNC(CC(C)C)C(=O)NC1C(=O)NC(CC(N)=O)C(=O)NC2C(=O)NC3C(=O)NC(C(=O)NC(C(=O)O)c4cc(O)cc(O)c4-c4cc3ccc4O)C(OC3CC(C)(N)C(O)C(C)O3)c3ccc(c(Cl)c3)Oc3cc2cc(c3OC2OC(CO)C(O)C(O)C2OC2CC(C)(NCCCCCCCCCCCCc3ccccc3)C(O)C(C)O2)Oc2ccc(cc2Cl)C1O (stereo not drawn) [Compound 234, 12-phenyldodecyl] | 0.5 µg/mL (≈ 0.272 µM) | 16 µg/mL (≈ 8.71 µM) | 4 µg/mL (≈ 2.18 µM) |
| CNC(CC(C)C)C(=O)NC1C(=O)NC(CC(N)=O)C(=O)NC2C(=O)NC3C(=O)NC(C(=O)NC(C(=O)O)c4cc(O)cc(O)c4-c4cc3ccc4O)C(OC3CC(C)(N)C(O)C(C)O3)c3ccc(c(Cl)c3)Oc3cc2cc(c3OC2OC(CO)C(O)C(O)C2OC2CC(C)(NCCCCCCCCCC#Cc3ccccc3)C(O)C(C)O2)Oc2ccc(cc2Cl)C1O (stereo not drawn) [Compound 236, 11-phenyl-10-undecynyl] | 1 µg/mL (≈ 0.55 µM) | 4 µg/mL (≈ 2.2 µM) | 2 µg/mL (≈ 1.1 µM) |
| CNC(CC(C)C)C(=O)NC1C(=O)NC(CC(N)=O)C(=O)NC2C(=O)NC3C(=O)NC(C(=O)NC(C(=O)O)c4cc(O)cc(O)c4-c4cc3ccc4O)C(OC3CC(C)(N)C(O)C(C)O3)c3ccc(c(Cl)c3)Oc3cc2cc(c3OC2OC(CO)C(O)C(O)C2OC2CC(C)(NCc3sccc3-c3cccs3)C(O)C(C)O2)Oc2ccc(cc2Cl)C1O (stereo not drawn) [Compound 238, 3-[2-thienyl]-2-thienylmethyl] | ≤ 0.06 µg/mL | ≤ 0.06 µg/mL | ≤ 0.06 µg/mL |
